# Counter-ions that a name gives are not always drawn. Like-named read-outs stand apart in the source and are kept apart here.
# How the values were obtained:
# Experiment in all cases: AK assay 384-well format, Prestwick library screening
# [1] = test system: A. baumannii strain 98-37-09; type: cell-based, Acinetobacter baumannii; details: 50 μM final drug concentration; for fold induction at 50 µM: Acinetobacter baumannii, 983709, 3 h
# E. coli = type: cell-based, Escherichia coli; details: 50 μM final drug concentration; for fold induction at 50 µM: Escherichia coli, 3 h
# K. pneumoniae = type: cell-based, Klebsiella pneumoniae; details: 50 μM final drug concentration; for fold induction at 50 µM: Klebsiella pneumoniae, 3 h
# [2] = test system: S. aureus strain USA300-0114; type: cell-based, Staphylococcus aureus; details: 50 μM final drug concentration; for fold induction at 50 µM: Staphylococcus aureus, USA300, 3 h
# E. cloacae = type: cell-based, Enterobacter cloacae; details: 50 μM final drug concentration; for fold induction at 50 µM: Enterobacter cloacae, 3 h
# P. aeruginosa = type: cell-based, Pseudomonas aeruginosa; details: 50 μM final drug concentration; for fold induction at 50 µM: Pseudomonas aeruginosa, 3 h
# E. faecium = type: cell-based, Enterococcus faecium; details: 50 μM final drug concentration; for fold induction at 50 µM: Enterococcus faecium, 3 h
# [3] = planktonic, cutoff for positive 3-fold increase, read-out: AK-based Prestwick Library Screening Results, A. baumannii (fold increase in extracellular AK activity)
# [4] = planktonic, cutoff for positive 3-fold increase, read-out: AK-based Prestwick Library Screening Results, E. coli (fold increase in extracellular AK activity)
# [5] = planktonic, cutoff for positive 3-fold increase, read-out: AK-based Prestwick Library Screening Results, K. pneumoniae (fold increase in extracellular AK activity)
# [6] = planktonic, cutoff for positive 3-fold increase, read-out: AK-based Prestwick Library Screening Results, S. aureus (fold increase in extracellular AK activity)
# [7] = planktonic, cutoff for positive 3-fold increase, read-out: AK-based Prestwick Library Screening Results, E. cloacae (fold increase in extracellular AK activity)
# [8] = planktonic, cutoff for positive 3-fold increase, read-out: AK-based Prestwick Library Screening Results, P. aeruginosa (fold increase in extracellular AK activity)
# [9] = planktonic, cutoff for positive 3-fold increase, read-out: AK-based Prestwick Library Screening Results, E. faecium (fold increase in extracellular AK activity)
# [10] = planktonic, cutoff for positive-scoring molecules 3-fold increase
# [11] = planktonic, cutoff for positive-scoring molecules 3-fold increase, read-out: AK-based Prestwick Library Screening Results, A. baumannii (fold increase in extracellular AK activity)
# [12] = planktonic, cutoff for positive-scoring molecules 3-fold increase, read-out: AK-based Prestwick Library Screening Results, E. coli (fold increase in extracellular AK activity)
# [13] = planktonic, cutoff for positive-scoring molecules 3-fold increase, read-out: AK-based Prestwick Library Screening Results, K. pneumoniae (fold increase in extracellular AK activity)
# [14] = planktonic, cutoff for positive-scoring molecules 3-fold increase, read-out: AK-based Prestwick Library Screening Results, S. aureus (fold increase in extracellular AK activity)
# [15] = planktonic, cutoff for positive-scoring molecules 3-fold increase, read-out: AK-based Prestwick Library Screening Results, E. cloacae (fold increase in extracellular AK activity)
# [16] = planktonic, cutoff for positive-scoring molecules 3-fold increase, read-out: AK-based Prestwick Library Screening Results, P. aeruginosa (fold increase in extracellular AK activity)
# [17] = planktonic, cutoff for positive-scoring molecules 3-fold increase, read-out: AK-based Prestwick Library Screening Results, E. faecium (fold increase in extracellular AK activity)
molecule,measurement,setting,value
CC[C@@H]1C(=O)OC[C@@H]1Cc1cncn1C [Pilocarpine nitrate],fold induction at 50 µM,[1]; [3],1
same,fold induction at 50 µM,E. coli; [4],1
same,fold induction at 50 µM,K. pneumoniae; [5],0.9
same,fold induction at 50 µM,[2]; [6],1.3
same,fold induction at 50 µM,E. cloacae; [7],1.5
same,fold induction at 50 µM,P. aeruginosa; [8],1
same,fold induction at 50 µM,E. faecium; [9],1.1
CO[C@H]1/C=C/O[C@@]2(C)Oc3c(C)c(O)c4c(O)c(c(/C=N/N5CCN(C)CC5)c(O)c4c3C2=O)NC(=O)/C(C)=C\C=C\[C@H](C)[C@H](O)[C@@H](C)[C@@H](O)[C@@H](C)[C@H](OC(C)=O)[C@@H]1C [Rifampicin],fold induction at 50 µM,[1]; [3],3
same,fold induction at 50 µM,E. coli; [4],1.3
same,fold induction at 50 µM,K. pneumoniae; [5],0.7
same,fold induction at 50 µM,[2]; [6],0.8
same,fold induction at 50 µM,E. cloacae; [7],1.4
same,fold induction at 50 µM,P. aeruginosa; [8],0.6
same,fold induction at 50 µM,E. faecium; [9],0.8
Foliosidine,"AK-based Prestwick Library Screening Results, A. baumannii (fold increase in extracellular AK activity)",[1]; [10],0.8
same,"AK-based Prestwick Library Screening Results, E. coli (fold increase in extracellular AK activity)","E. coli; planktonic, […]",0.9
same,"AK-based Prestwick Library Screening Results, K. pneumoniae (fold increase in extracellular AK activity)",K. pneumoniae; [10],0.8
same,"AK-based Prestwick Library Screening Results, S. aureus (fold increase in extracellular AK activity)",[2]; [10],0.7
same,"AK-based Prestwick Library Screening Results, E. cloacae (fold increase in extracellular AK activity)",E. cloacae; [10],1.0
same,"AK-based Prestwick Library Screening Results, P. aeruginosa (fold increase in extracellular AK activity)",P. aeruginosa; [10],0.8
same,"AK-based Prestwick Library Screening Results, E. faecium (fold increase in extracellular AK activity)",E. faecium; [10],0.9
O=C(O)CCNC(=O)c1ccc(/N=N/c2ccc(O)c(C(=O)O)c2)cc1 [Balsalazide Sodium],fold induction at 50 µM,[1]; [11],0.5
same,fold induction at 50 µM,E. coli; [12],0.5
same,fold induction at 50 µM,K. pneumoniae; [13],0.7
same,fold induction at 50 µM,[2]; [14],0.4
same,fold induction at 50 µM,E. cloacae; [15],0.4
same,fold induction at 50 µM,P. aeruginosa; [16],0.5
same,fold induction at 50 µM,E. faecium; [17],0.9
O=c1cc(-c2ccccc2)oc2cc(O)cc(O)c12 [Chrysin],fold induction at 50 µM,[1]; [11],0.2
same,fold induction at 50 µM,E. coli; [12],0.2
same,fold induction at 50 µM,K. pneumoniae; [13],0.2
same,fold induction at 50 µM,[2]; [14],0.2
same,fold induction at 50 µM,E. cloacae; [15],0.6
same,fold induction at 50 µM,P. aeruginosa; [16],0.1
same,fold induction at 50 µM,E. faecium; [17],0.3
CCN1C[C@]2(C)CC[C@H](O)[C@]34C1[C@@H](C[C@H]23)[C@@]1(O)C[C@H](OC)[C@H]2C[C@@H]4[C@@H]1[C@H]2O [Karakoline],fold induction at 50 µM,"[1]; planktonic, […], read-out: AK-based Prestwick Library Screening Results, A. baumannii (fold increase in extracellular AK activity)",1
same,fold induction at 50 µM,"E. coli; planktonic, […], read-out: AK-based Prestwick Library Screening Results, E. coli (fold increase in extracellular AK activity)",1
same,fold induction at 50 µM,"K. pneumoniae; planktonic, […], read-out: AK-based Prestwick Library Screening Results, K. pneumoniae (fold increase in extracellular AK activity)",0.9
same,fold induction at 50 µM,"[2]; planktonic, […], read-out: AK-based Prestwick Library Screening Results, S. aureus (fold increase in extracellular AK activity)",1.2
same,fold induction at 50 µM,"E. cloacae; planktonic, […], read-out: AK-based Prestwick Library Screening Results, E. cloacae (fold increase in extracellular AK activity)",1.3
same,fold induction at 50 µM,"P. aeruginosa; planktonic, […], read-out: AK-based Prestwick Library Screening Results, P. aeruginosa (fold increase in extracellular AK activity)",1.1
same,fold induction at 50 µM,"E. faecium; planktonic, […], read-out: AK-based Prestwick Library Screening Results, E. faecium (fold increase in extracellular AK activity)",1
CCC[C@@H]1C[C@@H](C(=O)N[C@@H]([C@H]2O[C@H](SC)[C@H](O)[C@@H](O)[C@H]2O)[C@H](C)Cl)N(C)C1 [Clindamycin hydrochloride],fold induction at 50 µM,"[1]; planktonic A. baumannii, 384-well, cutoff for positive-scoring molecules 3-fold increase, read-out: AK-based Prestwick Library Screening Results: A. baumannii (increase in extracellular AK activity)",1
same,fold induction at 50 µM,"E. coli; planktonic E. coli, 384-well, cutoff for positive-scoring molecules 3-fold increase, read-out: AK-based Prestwick Library Screening Results: E. coli (increase in extracellular AK activity)",0.8
same,fold induction at 50 µM,"K. pneumoniae; planktonic K. pneumoniae, 384-well, cutoff for positive-scoring molecules 3-fold increase, read-out: AK-based Prestwick Library Screening Results: K. pneumoniae (increase in extracellular AK activity)",0.5
same,fold induction at 50 µM,"[2]; planktonic S. aureus, 384-well, cutoff for positive-scoring molecules 3-fold increase, read-out: AK-based Prestwick Library Screening Results: S. aureus (increase in extracellular AK activity)",8.4
same,fold induction at 50 µM,"E. cloacae; planktonic E. cloacae, 384-well, cutoff for positive-scoring molecules 3-fold increase, read-out: AK-based Prestwick Library Screening Results: E. cloacae (increase in extracellular AK activity)",1.7
same,fold induction at 50 µM,"P. aeruginosa; planktonic P. aeruginosa, 384-well, cutoff for positive-scoring molecules 3-fold increase, read-out: AK-based Prestwick Library Screening Results: P. aeruginosa (increase in extracellular AK activity)",1.1
same,fold induction at 50 µM,"E. faecium; planktonic E. faecium, 384-well, cutoff for positive-scoring molecules 3-fold increase, read-out: AK-based Prestwick Library Screening Results: E. faecium (increase in extracellular AK activity)",1.2
c1ccc2c(c1)OCC(C1=NCCN1)O2 (stereo not drawn) [Idazoxan hydrochloride],fold induction at 50 µM,"[1]; cutoff for positive-scoring molecules 3-fold increase, read-out: AK-based Prestwick Library Screening Results, A. baumannii (fold increase in extracellular AK activity)",1.1
same,fold induction at 50 µM,"E. coli; cutoff for positive-scoring molecules 3-fold increase, read-out: AK-based Prestwick Library Screening Results, E. coli (fold increase in extracellular AK activity)",1.1
same,fold induction at 50 µM,"K. pneumoniae; cutoff for positive-scoring molecules 3-fold increase, read-out: AK-based Prestwick Library Screening Results, K. pneumoniae (fold increase in extracellular AK activity)",1
same,fold induction at 50 µM,"[2]; cutoff for positive-scoring molecules 3-fold increase, read-out: AK-based Prestwick Library Screening Results, S. aureus (fold increase in extracellular AK activity)",1.1
same,fold induction at 50 µM,"E. cloacae; cutoff for positive-scoring molecules 3-fold increase, read-out: AK-based Prestwick Library Screening Results, E. cloacae (fold increase in extracellular AK activity)",1.5
same,fold induction at 50 µM,"P. aeruginosa; cutoff for positive-scoring molecules 3-fold increase, read-out: AK-based Prestwick Library Screening Results, P. aeruginosa (fold increase in extracellular AK activity)",1.2
same,fold induction at 50 µM,"E. faecium; cutoff for positive-scoring molecules 3-fold increase, read-out: AK-based Prestwick Library Screening Results, E. faecium (fold increase in extracellular AK activity)",1
C#CCN(C)Cc1ccccc1 [Pargyline hydrochloride],fold induction at 50 µM,"[1]; 384-well format, cutoff for positive-scoring molecules 3-fold increase, read-out: AK-based Prestwick Library Screening Results, A. baumannii (increase in extracellular AK activity)",0.9
same,fold induction at 50 µM,"E. coli; 384-well format, cutoff for positive-scoring molecules 3-fold increase, read-out: AK-based Prestwick Library Screening Results, E. coli (increase in extracellular AK activity)",1
same,fold induction at 50 µM,"K. pneumoniae; 384-well format, cutoff for positive-scoring molecules 3-fold increase, read-out: AK-based Prestwick Library Screening Results, K. pneumoniae (increase in extracellular AK activity)",0.8
same,fold induction at 50 µM,"[2]; 384-well format, cutoff for positive-scoring molecules 3-fold increase, read-out: AK-based Prestwick Library Screening Results, S. aureus (increase in extracellular AK activity)",0.8
same,fold induction at 50 µM,"E. cloacae; 384-well format, cutoff for positive-scoring molecules 3-fold increase, read-out: AK-based Prestwick Library Screening Results, E. cloacae (increase in extracellular AK activity)",0.9
same,fold induction at 50 µM,"P. aeruginosa; 384-well format, cutoff for positive-scoring molecules 3-fold increase, read-out: AK-based Prestwick Library Screening Results, P. aeruginosa (increase in extracellular AK activity)",1
same,fold induction at 50 µM,"E. faecium; 384-well format, cutoff for positive-scoring molecules 3-fold increase, read-out: AK-based Prestwick Library Screening Results, E. faecium (increase in extracellular AK activity)",0.9

# Reference: patent publication US10004701B2, “Methods and compositions for treating infection” (UNIVERSITY OF ROCHESTER, priority 2012, dated 2018)
